# Measured values: patent publication US12653851B2, “Isolated recombinant oncolytic adenoviruses, pharmaceutical compositions, and uses thereof for drugs for treatment of tumors and/or cancers” (HANGZHOU CONVERD CO., LTD., priority 2017, dated 2026)
# “Also recorded” adds a separate entry of the source.
# Legend:
# [1] = test system: hPDL1 mRNA (human PDL1 mRNA); experiment: inhibitory effect of shPDL1 on hPDL1 mRNA, Real-time PCR; type: cell-based; details: U251 and H460 cells, 24 h and 48 h after transfection, compared to control shRNA
# Experimental: U251 and H460 cells were seeded in 12-well plates at 2×10^5 cells per well, respectively, 12 hours in advance. U251 and H460 cells in each well were transfected with 1.6 μg shRNA expression vector DNA in a ratio to 4 μl lipofectamin 2000. Two cell samples were taken over 24 hours and 48 hours, respectively. After the total RNA was extracted and reverse transcription was performed, the expression level of human PDL1 mRNA in cells was detected by Real-time PCR with the mRNA level of GAPDH gene as a control.
# [2] = test system: human PDL1 protein fused with 3×FLAG tag; experiment: inhibitory effect of shPDL1 on over-expressed hPDL1 protein in 293T cells, Western blot; type: cell-based; details: 293T cells co-transfected 1:1 with pcDNA3.3-hPDL1-3×FLAG, 48 hours
# Experimental: 293T cells were transiently transfected with plasmids pSGU6/GFP/Neo-shPDL1-NC, pSGU6/GFP/Neo-shPDL1-1, pSGU6/GFP/Neo-shPDL1-2 and pSGU6/GFP/Neo-shPDL1-3 with pcDNA3.3-hPDL1-3×FLAG at an equimolar ratio (1:1), respectively, wherein plasmid pcDNA3.3-hPDL1-3×FLAG expresses the human PDL1 protein fused with 3×FLAG tag. Cell samples were collected after 48 hours, and Western blot analysis was performed after cell lysis.
Substance,inhibitory effect on hPDL1 mRNA [1],over-expressed hPDL1 protein [2]
shPDL1-#3: shRNA (coding sequence SEQ ID NO. 22) targeting region 589-611 of human PDL1 mRNA (DNA GAGAATCAACACAACAACTAATTCAAGAGATTAGTTGTTGTGTTGATTCTCTT),inhibitory effect,
shPDL1-#2: shRNA (coding sequence SEQ ID NO. 19) targeting region 430-452 of human PDL1 mRNA (DNA GGATCCAGTCACCTCTGAACATTCAAGAGATGTTCAGAGGTGACTGGATCCTT),inhibitory effect,
shPDL1-#1 (GGGAAATGGAGGATAAGAACATTCAAGAGATGTTCTTATCCTCCATTTCCCTT; expressed or natural sequence),inhibitory effect; also recorded: most significant inhibitory effect,significantly reduce
